According to patent EP1420018A1, “Pyrido[1,2-a]benzimidazole derivatives useful in treating central nervous system disorders” (Ortho-McNeil Pharmaceutical, Inc., priority 1996, dated 1998):
Like-named read-outs stand apart in the source and are kept apart here.

How the values were obtained:
[1] = tested on: metrazol-induced convulsions; experiment: Suppression of Metrazol-Induced Convulsions in Adult Male Mice; format: in vivo; details: Mus musculus, ip
Experimental: Assay to Determine the Suppression of Metrazol-Induced Convulsions in Adult Male Mice
Male CD1 mice, were fasted at least 16 hours, were divided into equal groups and test compounds or vehicle were administered parenterally. Water was not withheld except during the period of observations. […] Metrazol was dissolved in 0.9% sodium chloride solution, and its dose volume was 10 ml/kg. Animals were housed individually for observation of clonic convulsions, tonic convulsions and death for a period of 30 min. […] The biological assay was considered to be valid if the effects of a known anticonvulsant (positive control) were detected, within the same experiment. Activity was reported as percent reduction of clonic convulsions from the vehicle group.

[2] = tested on: Anxiety in the Adult Male Rat; experiment: Suppression of Anxiety in the Adult Male Rat (rat conflict test); format: in vivo, rats; details: Rattus norvegicus
Experimental: Assay to Measure the Suppression of Anxiety in the Adult Male Rat
Male rats were deprived of water for 48 hours and were deprived of food for 24 hours prior to testing. After the first 24 hours of water deprivation, they were placed in the conflict chamber for a training period; wherein, they were allowed 200 unpunished licks from a bottle containing tap water. The experiment was run the next day. At the expected time of peak activity, the animals were placed in the chamber and allowed access to tap water. […] Their first lick initiates a 3-min test session. Subsequently, every 20th lick was punished by a 0.2-s shock delivered via the stainless-steel drinking-tube.
The Wilcoxon rank-sum test (Mann-Whitney U-test) was used to test for an increase (p<0.05, 1-tailed) in the median number of shocks in drug-treated groups, compared to a concurrently run vehicle-treated group. The biological assay is considered to be valid if the effects of a known anxiolytic (positive control) are detected, within the same experiment.

[3] = tested on: metrazol-induced convulsions; experiment: Suppression of Metrazol-Induced Convulsions in Adult Male Mice; format: in vivo; details: Mus musculus, po
[4] = molecular target: benzodiazepine site of the GABA-A receptor; experiment: Benzodiazepine Receptor Binding Assay (inhibition of 3H-flunitrazepam binding); details: read-out: GABAA Receptor Binding IC50
[5] = po, rat, po, read-out: Rat Conflict (MED, mg/kg) po
[6] = ip, rat, ip, read-out: Rat Conflict (MED, mg/kg) ip
[7] = block of clonic convulsions, male CD1 mice, >30 = active dose not determined
[8] = po, minimum effective dose, increase in shocks tolerated, >10 = active dose not determined, read-out: Rat Conflict (MED, mg/kg) po
[9] = inhibition of 3H-flunitrazepam (ca. 3 nM) binding to membranes, 25°C, over 10,000 = not active

Compound | ED50 ([1]; mouse) [mg/kg] | minimal effective dose [2, 5] [mg/kg] | ED50 ([3]; mouse) [mg/kg] | IC50 [4] [nM] | minimal effective dose [2, 6] [mg/kg] | ED50 [1, 7] [mg/kg] | minimal effective dose [2, 8] [mg/kg] | ED50 [3, 7] [mg/kg] | IC50 [4, 9] [nM]
CCOCCN1C2=C(C(=O)Nc3nccs3)C(=O)CCN2c2ccc(F)cc21 [Compound 141] | < 1 | > 3 | ~6 | 6.78 | – | – | – | – | –
COCCN1C2=C(C(=O)Nc3sccc3Cl)C(=O)CCN2c2ccc(F)cc21 [Compound 138] | < 1 | > 10 | 30 | 1.34 | – | – | – | – | –
CN(CCN1C2=C(C(=O)Nc3ccccc3F)C(=O)CCN2c2ccc(F)cc21)Cc1ccc(F)cc1 [Compound 62] | 3 | > 10 | 30 | 7.69 | < 10 | – | – | – | –
CCOCCN1C2=C(C(=O)Nc3ccc(F)cc3F)C(=O)CCN2c2ccc(F)cc21 [Compound 137] | < 1 | 1 | 0.15 | 2.4 | 1 | – | – | – | –
O=C1CCN2C(=C1C(=O)Nc1ccccc1F)N(CCCO)c1cc(F)ccc12 [Compound 169] | 0.1 | 10 | 0.5 | 1.08 | 10 | – | – | – | –
N#CCCNC(=O)CN1C2=C(C(=O)Nc3ccccc3F)C(=O)CCN2c2ccc(F)cc21 [Compound 36, 7-Fluoro-1,2-dihydro-5-[N-(2-cyanoethyl)-2-acetamido]-3-oxo-N-(2-fluorophenyl)pyrido[1,2-a]benzimidazole-4-carboxamide] | – | – | – | – | – | > 1 | > 10 | > 30 | 3.3
COCCN1C2=C(C(=O)Nc3ccccc3F)C(=O)CCN2c2ccc(F)c(F)c21 [Compound 149] | < 1 | > 10 | 3 | 1.08 | – | – | – | – | –
CCOCCN1C2=C(C(=O)Nc3cccs3)C(=O)CCN2c2ccc(F)cc21 [Compound 126] | < 1 | 0.1 | ~0.6 | 0.73 | – | – | – | – | –
O=C1CCN2C(=C1C(=O)Nc1ccccc1F)N(CCO)c1cc(F)ccc12 [Compound 168, 7-Fluoro-1,2-dihydro-5-(2-hydroxyethyl)-3-oxo-N-(2-fluorophenyl)pyrido[1,2-a]benzimidazole-4-carboxamide] | < 1 | > 10 | < 30 | 1.17 | 10 | – | – | – | –
COCCNCCN1C2=C(C(=O)Nc3ccccc3F)C(=O)CCN2c2ccc(F)cc21 [Compound 52] | 1 | 10 | 1 | 7.42 | ~10 | – | – | – | –
CCOCN1C2=C(C(=O)NC3CC3)C(=O)CCN2c2ccc(F)cc21 [Compound 111] | > 1 | > 10 | > 30 | 1.9 | – | – | – | – | –
COCCN1C2=C(C(=O)Nc3ccccc3F)C(=O)CCN2c2ccc(C(F)(F)F)cc21 [Compound 148] | < 1 | > 10 | ~10 | 1.98 | – | – | – | – | –
O=C1CCN2C(=C1C(=O)Nc1ccccc1F)N(CCNC(=O)c1ccccc1C(F)(F)F)c1cc(F)ccc12 [Compound 76] | > 1 | > 10 | > 30 | 40.9 | – | – | – | – | –
COCCN1C2=C(C(=O)Nc3ccc(F)cc3F)C(=O)CCN2c2ccc(F)cc21 [Compound 136] | < 1 | 0.3 | 0.3 | 5.55 | – | – | – | – | –
CN(C)C=NCCN1C2=C(C(=O)Nc3ccccc3F)C(=O)CCN2c2ccc(F)cc21 [Compound 40] | – | – | – | – | – | < 1 | 10 | ~30 | 35
CN(C)c1ccc(CCN2C3=C(C(=O)Nc4c(F)cccc4F)C(=O)CCN3c3ccc(F)cc32)cc1 [Compound 83] | 3 | – | < 30 | 36.2 | > 10 | – | – | – | –
CC(C)(C)OC(=O)CN1C2=C(C(=O)Nc3ccccc3F)C(=O)CCN2c2ccc(F)cc21 [Compound 176] | > 1 | > 10 | > 30 | 56.2 | – | – | – | – | –
CC1(C)OCC(CN2C3=C(C(=O)Nc4ccccc4F)C(=O)CCN3c3ccc(F)cc32)O1 (stereo not drawn) [Compound 164] | 0.1 | 10 | 1 | 2.75 | < 10 | – | – | – | –
N#CCN1C2=C(C(=O)Nc3ccccc3F)C(=O)CCN2c2ccc(F)cc21 [Compound 89] | – | – | – | – | – | < 1 | 1 | 0.5 | 1.84
CCOCN1C2=C(C(=O)Nc3cccs3)C(=O)CCN2c2ccccc21 [Compound 105] | < 1 | 10 | < 3 | 0.84 | – | – | – | – | –
CC(C)(C)OC(=O)NCCN1C2=C(C(=O)Nc3ccccc3F)C(=O)CCN2c2ccc(F)cc21 [Compound 58] | < 1 | > 10 | < 30 | 0.54 | ≤ 10 | – | – | – | –
CN(C)CCN1C2=C(C(=O)Nc3c(F)cc(F)cc3F)C(=O)CCN2c2ccc(F)cc21 [Compound 54] | 10 | – | > 30 | 208 | > 10 | – | – | – | –
N#CCN1C2=C(C(=O)NC3CC3)C(=O)CCN2c2ccc(F)cc21 [Compound 77] | < 1 | > 10 | > 30 | 0.86 | – | – | – | – | –
CCOCN1C2=C(C(=O)Nc3ccccc3F)C(=O)CCN2c2ccc(F)c(F)c21 [Compound 103] | < 1 | 1 | < 3 | 0.55 | – | – | – | – | –
COCCN(C)CCN1C2=C(C(=O)Nc3ccccc3F)C(=O)CCN2c2ccc(F)cc21 [Compound 38, 7-Fluoro-1,2-dihydro-5-[N-(2-(methoxy)ethyl)-2-(methylamino)ethyl]-3-oxo-N-(2-fluorophenyl)pyrido[1,2-a]-benzimidazole-4-carboxamide] | – | – | – | – | – | < 1 | 3 | 1 | 4.06
CCOCCN1C2=C(C(=O)Nc3ccnc(F)c3)C(=O)CCN2c2ccc(F)cc21 [Compound 130] | < 1 | 1 | ~0.8 | 2.27 | – | – | – | – | –
CS(=O)(=O)NCCN1C2=C(C(=O)Nc3ccccc3F)C(=O)CCN2c2ccc(F)cc21 [Compound 50] | 1 | – | < 30 | 7.7 | > 10 | – | – | – | –
CCOCN1C2=C(C(=O)Nc3cccs3)C(=O)CCN2c2ccc(F)cc21 [Compound 129] | < 1 | 3 | ~0.2 | 1.05 | – | – | – | – | –
CN(C)CCN1C2=C(C(=O)Nc3ccncc3)C(=O)CCN2c2ccccc21 [Compound 72] | > 10 | – | > 30 | 3840 | > 10 | – | – | – | –
